Data reported in patent US20140011755A1, “Cardiac Glycosides for Treating Autoimmune Disease” (Department of Veterans Affairs, priority 2010, published 2014).

What was measured:
[1] = system: B cell receptor (membrane Ig); experiment: B cell receptor mediated B cell proliferation; type: cell-based, mice; details: pre-treatment of B cells; anti-IgM stimulation
Method: Activity was monitored by ^3H-thymidine incorporation as a read-out for proliferation. […] Cell type(s) in the splenocyte population responsive to therapeutic concentrations of cardiac glycoside were determined by identifying the population of cells that responded to a dose-dependent decrease in activity in the presence of stimulant, defined as ligand(s) binding to cognate receptor(s). Activity was analyzed by: ^3H-thymidine or BrdU incorporation to monitor proliferation or by ELISA to monitor cytokine production. Splenic T lymphocytes were isolated by negative selection (MACS, Miltinyi Biotec) and are stimulated with PMA, ConA or through the TCR with anti-CD3/anti-CD28 Dynabeads (Invitrogen) and collagen II (all non-TNFR receptors/pathways). […] Peritoneal and bone marrow-derived macrophages were isolated from CIA mice in the presence of M-CSF growth factor and were stimulated with TNF and CD40 ligand (CD40L). […] Splenic B lymphocytes were isolated by negative selection (MACS, Miltinyi Biotec) and were stimulated with BAFF (BLyS), CD40L or through the BCR with anti-IgM u-chain specific antibodies.

[2] = system: TNF-mediated NFκB activity in HeLa cells; experiment: NFκB luciferase reporter assay in TNF-stimulated HeLa cells; type: cell-based; details: pre-treatment 6 hours with 0-500 nM, 50 ng/mL TNF
Method: FIG. 8. […] Values represent mean light units produced. Error bars represent SEM, and statistical significance was determined by unpaired T-test. Single and double asterisks represent P-values of 0.01 or 0.001, respectively. […] Samples were harvested at designated time points and were fractionated into nuclear and cytoplasmic lysates (Pierce). Lysates were quantified using BCA (Pierce), and were equally loaded according to total protein. Membranes were probed for levels of nuclear phospho-p65 (ReIA), phospho-ReIB, and histone (histone served as loading control and fractionation method control) and cytoplasmic degradation of IκBα (beta-tubulin served as loading control and fractionation method control).
HeLa cells were co-transfected with the reporter pNFκB-luc and control vector pTAL (Renilla) for 18 h prior to incubation with 0-500 nM cardiac glycoside for 6 h. Cells are stimulated with 50 ng/mL TNF. […] FIG. 8 B).

[3] = system: naïve CD4+ T cells, Th17 differentiation; experiment: Th17 T cell differentiation in co-culture with pre-treated CIA B cells; type: cell-based, mice; details: B cells treated 33 nM for 30 minutes, washed, co-culture 72 hr in Th17 differentiation media
Method: FIG. 24. […] At endpoint, IL-17 cytokine levels were quantified by ELISA (R&D Systems). (B) IL-10 cytokine production was also assessed in each sample by ELISA (eBiosciences). Data represent the average of triplicates and error bars represent the SEM. Statistical significance was determined by the students t-test.
It is known that B cells can regulate T cell differentiation and in many states of autoimmune disease, an imbalance of Th1, Th2, and Th17 T cell populations exist. […] We performed studies to determine the regulatory effector function of B cells pre-treated with cardiac glycoside on T cell differentiation. B cells blocked naïve CD4^+ T cell differentiation into Th17 cells when cardiac glycoside was administered to B cells 30 minutes prior to co-culture with T cells (FIG. 24 A). Additionally, the pre-treatment of B cells with cardiac glycoside inhibited Th17 differentiation in a STAT3-dependent manner (FIG. 25A). […] Cardiac glycosides can be administered to patients to induce IL-10 expressing B cells and to modulate T cell differentiation and increase numbers of Tregs which reduce autoimmune disease progression.

`C[C@H]1O[C@@H](O[C@H]2[C@@H](O)C[C@H](O[C@H]3[C@@H](O)C[C@H](O[C@H]4CC[C@@]5(C)[C@H](CC[C@@H]6[C@@H]5CC[C@]5(C)[C@@H](C7=CC(=O)OC7)CC[C@]65O)C4)O[C@@H]3C)O[C@@H]2C)C[C@H](O)[C@@H]1O` [Digitoxin, digitoxin] was tested, and the “B cell receptor mediated B cell proliferation” value [1] was “did not inhibit”, the “TNF-mediated NFκB activation (luciferase light units)” value [2] was “reduced TNF-mediated NFκB activation in a dose-dependent fashion” and the “Th17 cell differentiation (IL-17 by ELISA)” value [3] was “down-regulates Th17 cell differentiation”.
